Assay results reported in the supplement of paper PMC11208160.

assay: recombinant UMI read abundance after kanamycin selection (control-corrected) (log10(CPM+1)); higher = more efficient recombination; extreme values may be limits of the assay; sequences stand for … in AGTGCAGAGAAAATCGGCCAGTTTTCTCTGCCTGCAGTCCGCATGCCGTGGGACCCCTTGGGTTCTAACCTGTTGCCTAGATTTATGCAGCGGACTGCCTTTCTCCCAAAGTGATAAACCGG…AGGTTGGTTTCACT; site = the 11-nt donor
Method: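 Pooled E. coli donor-specificity screen for the IS621 bridge recombinase. Each library member carries a reprogrammed 11-nt donor and a full-length LE bridge RNA expressed in cis from the natural promoter, with a paired donor-binding loop (8-nt LDG + 4-nt RDG) and a target-binding loop fixed to T5. It is co-electroporated with a T5 target plasmid; recombinase is induced with 0.07 mM IPTG and recombinants are selected on kanamycin. UMIs are counted as CPM, averaged over two biological replicates and corrected by the unselected control. Molecule = full bridge RNA written as DNA, built from the T5 scaffold: LDG = donor specificity nt 1-8, RDG = reverse complement of nt 8-11.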
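Note: IS621 bridge recombinase in Escherichia coli cells against a fixed T5 target plasmid.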

Sequence | recombinant UMI read abundance (log10)
AACTAGCCATGGACCGGTTTTCCCGGTAATCCGTATTTGCG (site AACTAGCCTCG) | 0.00356
AACTATACATGGACCGGTTTTCCCGGTAATCCGTATTTGAC (site AACTATACTGT) | 2.31
AACTATACATGGACCGGTTTTCCCGGTAATCCGTATTTGAC (site ACCTATACTGT) | 0.367
AACTATACATGGACCGGTTTTCCCGGTAATCCGTATTTGAC (site AGCTATACTGT) | 0.797
AACTATACATGGACCGGTTTTCCCGGTAATCCGTATTTGAC (site ATCTATACTGT) | 1.94
AACTATGCATGGACCGGTTTTCCCGGTAATCCGTATTTGGA (site AAATATGCTTC) | 0.502
AACTATGCATGGACCGGTTTTCCCGGTAATCCGTATTTGGA (site AACTATGCTTC) | 1.22
AACTATGCATGGACCGGTTTTCCCGGTAATCCGTATTTGGA (site AAGTATGCTTC) | 0.552
AACTATGCATGGACCGGTTTTCCCGGTAATCCGTATTTGGA (site AATTATGCTTC) | 0.908
AACTATTCATGGACCGGTTTTCCCGGTAATCCGTATTTGCG (site AACTATTCTCG) | 2.02
AACTGGACATGGACCGGTTTTCCCGGTAATCCGTATTTGGG (site AACTGGACTCC) | 0.0254
AACTTGACATGGACCGGTTTTCCCGGTAATCCGTATTTGAC (site AACTTGACTGT) | 0
AACTTGTCATGGACCGGTTTTCCCGGTAATCCGTATTTGGC (site AACTTGTCTGC) | 0
AAGAACACATGGACCGGTTTTCCCGGTAATCCGTATTTGCA (site AAGAACACTTG) | 2.85
AAGAACACATGGACCGGTTTTCCCGGTAATCCGTATTTGCA (site AGGAAGACTTG) | 0
AAGAAGACATGGACCGGTTTTCCCGGTAATCCGTATTTGAA (site AAGAAGACTTT) | 2.39
AAGAAGACATGGACCGGTTTTCCCGGTAATCCGTATTTGAA (site AGGAAGACTTG) | 0
AAGAAGTCATGGACCGGTTTTCCCGGTAATCCGTATTTGTA (site AAGAAGTCTTA) | 3.3
AAGAGGACATGGACCGGTTTTCCCGGTAATCCGTATTTGCA (site AAGAGGACTTG) | 2.65
AAGAGGACATGGACCGGTTTTCCCGGTAATCCGTATTTGCA (site AGGAAGACTTG) | 1.62
AAGCAAGCATGGACCGGTTTTCCCGGTAATCCGTATTTGGG (site AAGCAAGCTCC) | 0.623
AAGCAAGCATGGACCGGTTTTCCCGGTAATCCGTATTTGGG (site AAGCACGCTCC) | 0.0526
AAGCAAGCATGGACCGGTTTTCCCGGTAATCCGTATTTGGG (site AAGCAGGCTCC) | 0
AAGCAAGCATGGACCGGTTTTCCCGGTAATCCGTATTTGGG (site AAGCATGCTCC) | 0.0463

Sequence | recombinant UMI read abundance (log10)
AAGCACACATGGACCGGTTTTCCCGGTAATCCGTATTTGGG (site AAGCACACTCC) | 0.242
AAGCACACATGGACCGGTTTTCCCGGTAATCCGTATTTGGG (site AAGCACCCTCC) | 0.0138
AAGCACACATGGACCGGTTTTCCCGGTAATCCGTATTTGGG (site AAGCACGCTCC) | 0.0056
AAGCACACATGGACCGGTTTTCCCGGTAATCCGTATTTGGG (site AAGCACTCTCC) | 0.222
AAGCACTCATGGACCGGTTTTCCCGGTAATCCGTATTTGGG (site AAGCACACTCC) | 0.0075
AAGCACTCATGGACCGGTTTTCCCGGTAATCCGTATTTGGG (site AAGCACCCTCC) | 0.00615
AAGCACTCATGGACCGGTTTTCCCGGTAATCCGTATTTGGG (site AAGCACGCTCC) | 0.0931
AAGCACTCATGGACCGGTTTTCCCGGTAATCCGTATTTGGG (site AAGCACTCTCC) | 1.57
AAGCCTGCATGGACCGGTTTTCCCGGTAATCCGTATTTGTA (site AAGCCTGCTTA) | 0.811
AAGCGCGCATGGACCGGTTTTCCCGGTAATCCGTATTTGGG (site AAGCACGCTCC) | 0.0182
AAGCGCGCATGGACCGGTTTTCCCGGTAATCCGTATTTGGG (site AAGCCCGCTCC) | 0.0103
AAGCGCGCATGGACCGGTTTTCCCGGTAATCCGTATTTGGG (site AAGCGCGCTCC) | 0.214
AAGCGCGCATGGACCGGTTTTCCCGGTAATCCGTATTTGGG (site AAGCTCGCTCC) | 0.0124
AAGCGTCCATGGACCGGTTTTCCCGGTAATCCGTATTTGAT (site AAACGTCCTAT) | 0.245
AAGCGTCCATGGACCGGTTTTCCCGGTAATCCGTATTTGAT (site AACCGTCCTAT) | 0.281
AAGCGTCCATGGACCGGTTTTCCCGGTAATCCGTATTTGAT (site AAGCGTCCTAT) | 1.17
AAGCGTCCATGGACCGGTTTTCCCGGTAATCCGTATTTGAT (site AATCGTCCTAT) | 0.017
AAGCTAGCATGGACCGGTTTTCCCGGTAATCCGTATTTGAA (site AAGCTAGCTTT) | 2.09
AAGCTAGCATGGACCGGTTTTCCCGGTAATCCGTATTTGAA (site CAGCTAGCTTT) | 1.37
AAGCTAGCATGGACCGGTTTTCCCGGTAATCCGTATTTGAA (site GAGCTAGCTTT) | 0.00246
AAGCTAGCATGGACCGGTTTTCCCGGTAATCCGTATTTGAA (site TAGCTAGCTTT) | 1.48
AAGCTCGCATGGACCGGTTTTCCCGGTAATCCGTATTTGGG (site AAGCACGCTCC) | 0.0201
AAGCTCGCATGGACCGGTTTTCCCGGTAATCCGTATTTGGG (site AAGCCCGCTCC) | 0.0313
AAGCTCGCATGGACCGGTTTTCCCGGTAATCCGTATTTGGG (site AAGCGCGCTCC) | 0.0107

Sequence | recombinant UMI read abundance (log10)
AAGCTCGCATGGACCGGTTTTCCCGGTAATCCGTATTTGGG (site AAGCTCGCTCC) | 0.0176
AAGGATCCATGGACCGGTTTTCCCGGTAATCCGTATTTGTT (site AAGGATCCTAA) | 1.19
AAGGGCTCATGGACCGGTTTTCCCGGTAATCCGTATTTGGA (site AAGGGCTCTTC) | 1.96
AAGGTAACATGGACCGGTTTTCCCGGTAATCCGTATTTGCT (site AAAGTAACTAG) | 2.59
AAGGTAACATGGACCGGTTTTCCCGGTAATCCGTATTTGCT (site AACGTAACTAG) | 0.731
AAGGTAACATGGACCGGTTTTCCCGGTAATCCGTATTTGCT (site AAGGTAACTAG) | 2.73
AAGGTAACATGGACCGGTTTTCCCGGTAATCCGTATTTGCT (site AATGTAACTAG) | 1.43
AAGGTTACATGGACCGGTTTTCCCGGTAATCCGTATTTGAA (site AAGGTTACTTT) | 2.53
AAGTAGGCATGGACCGGTTTTCCCGGTAATCCGTATTTGCA (site AAGTAGGCTTG) | 2.63
AAGTCGTCATGGACCGGTTTTCCCGGTAATCCGTATTTGCG (site AAGTCGTCTCG) | 1.19
AAGTGAGCATGGACCGGTTTTCCCGGTAATCCGTATTTGGA (site AAGTGAGCTTC) | 0.812
AATAATGCATGGACCGGTTTTCCCGGTAATCCGTATTTGGA (site AATAATGCTTC) | 1.06
AATAATGCATGGACCGGTTTTCCCGGTAATCCGTATTTGGA (site AATCATGCTTC) | 0.217
AATAATGCATGGACCGGTTTTCCCGGTAATCCGTATTTGGA (site AATGATGCTTC) | 0.361
AATAATGCATGGACCGGTTTTCCCGGTAATCCGTATTTGGA (site AATTATGCTTC) | 0.707
AATACTTCATGGACCGGTTTTCCCGGTAATCCGTATTTGGA (site AATACTTCTTC) | 1.81
AATAGACCATGGACCGGTTTTCCCGGTAATCCGTATTTGAT (site AATAGACCTAT) | 0
AATAGTACATGGACCGGTTTTCCCGGTAATCCGTATTTGCG (site AATAGTACTCG) | 0.989
AATCAACCATGGACCGGTTTTCCCGGTAATCCGTATTTGGT (site AATCAACCTAC) | 0.00613
AATCAATCATGGACCGGTTTTCCCGGTAATCCGTATTTGGC (site AATCAATCTGC) | 2.07
AATCATTCATGGACCGGTTTTCCCGGTAATCCGTATTTGCT (site AATCATTCTAG) | 2.27
AATCCTCCATGGACCGGTTTTCCCGGTAATCCGTATTTGGA (site AATCCTCCTTC) | 0
AATCGTCCATGGACCGGTTTTCCCGGTAATCCGTATTTGAT (site AAACGTCCTAT) | 0.00356
AATCGTCCATGGACCGGTTTTCCCGGTAATCCGTATTTGAT (site AACCGTCCTAT) | 0.0167
